# In patent US20260053861A1, “CELL COMPOSITIONS AND METHODS OF USING THE SAME” (THE REGENTS OF THE UNIVERSITY OF CALIFORNIA, priority 2022, published 2026):
# Structures can show the parent of a compound that is named as a salt.
# Test system: hPSC-SCs
# Settings: not given
row,SMILES,z.score.t
1,COc1ccc2c3c([nH]c2c1)C(C)=NCC3.Cl.O.O [Harmaline hydrochloride dihydrate],1.306
2,COc1ccc2c(c1)[nH]c1c(C)nccc12.Cl [Harmine hydrochloride],−1.122
3,Cc1[nH]ccc2c1[nH]c1cc(=O)ccc12 [Harmol hydrochloride monohydrate],−0.7233
4,CO[C@H](C)[C@](O)(C(=O)OCC1=CCN2CC[C@H](O)[C@@H]12)C(C)C [Heliotrine],−0.3023
5,C[N+]1(C)CCOC(O)(c2ccc(-c3ccc(C4(O)C[N+](C)(C)CCO4)cc3)cc2)C1.[Br-].[Br-] (stereo not shown) [Hemicholinium bromide],−0.07901
6,COc1ccc([C@@H]2CC(=O)c3c(O)cc(O[C@@H]4O[C@H](CO[C@@H]5O[C@@H](C)[C@H](O)[C@@H](O)[C@H]5O)[C@@H](O)[C@H](O)[C@H]4O)cc3O2)cc1O [Hesperidin],0.2399
7,C[N+](C)(C)CCCCCC[N+](C)(C)C.O.O.[Br-].[Br-] [Hexamethonium dibromide dihydrate],0.7913
8,CN1CCC2=C[C@H](O)[C@H]3OC(=O)c4cc5c(cc4[C@H]3[C@@H]21)OCO5 [Hippeastrine hydrobromide],1.178
9,CN1CCCN(C(c2ccccc2)c2ccc(Cl)cc2)CC1 (stereo not shown) [Homochlorcyclizine dihydrochloride],−1.66
10,COc1ccc2c(c1OC)C(=O)O[C@@H]2[C@H]1c2cc3c(cc2CCN1C)OCO3 [Hydrastine hydrochloride],−0.4139
11,CN1[C@@H]2CC[C@H]1C[C@@H](OC(=O)[C@H](CO)c1ccccc1)C2 [Hyoscyamine (L)],−0.528
12,O=C(NCNC(=O)NC1C(=O)NC(=O)N1CO)NC1C(=O)NC(=O)N1CO (stereo not shown) [Imidurea],1.224
13,CC(=O)N(CC(O)CN(C(C)=O)c1c(I)c(C(=O)NCC(O)CO)c(I)c(C(=O)NCC(O)CO)c1I)c1c(I)c(C(=O)NCC(O)CO)c(I)c(C(=O)NCC(O)CO)c1I (stereo not shown) [Iodixanol],0.7539
14,CC(C)[N+]1(C)[C@@H]2CC[C@H]1CC(OC(=O)C(CO)c1ccccc1)C2.[Br-] (stereo partly shown) [Ipratropium bromide],−0.649
15,CC[C@H](C)[C@H]1O[C@]2(CC[C@@H]1C)C[C@@H]1C[C@@H](C/C=C(\C)[C@@H](O[C@H]3C[C@H](OC)[C@@H](O[C@H]4C[C@H](OC)[C@@H](O)[C@H](C)O4)[C@H](C)O3)[C@@H](C)/C=C/C=C3\CO[C@@H]4[C@H](O)C(C)=C[C@@H](C(=O)O1)[C@]34O)O2 [Ivermectin],−1.866
16,CCN1C[C@]2(C)CC[C@H](O)[C@]34C1[C@@H](C[C@H]23)[C@@]1(O)C[C@H](OC)[C@H]2C[C@@H]4[C@@H]1[C@H]2O [Karakoline],1.53
17,COC1=CC(=O)O[C@@H](/C=C/c2ccccc2)C1 [Kawain],0.9109

# Same assay, conditions: HTS viability of hPSC-SCs in the presence of 30 mM glucose; Prestwick library; Table S4
row,SMILES,z.score.t
1,COC1=CC(=O)C[C@@H](C)[C@]12Oc1c(Cl)c(OC)cc(OC)c1C2=O [Griseofulvin],−0.636
2,COc1ccccc1OCC(O)CO (stereo not shown) [Guaifenesin],−0.3023
3,N=C(N)N/N=C/c1c(Cl)cccc1Cl [Guanabenz acetate],0.5179
4,N=C(N)NC(=O)Cc1c(Cl)cccc1Cl [Guanfacine hydrochloride],0.9047
5,CC1(C)O[C@@H]2C[C@H]3[C@@H]4CCC5=CC(=O)CC[C@]5(C)[C@@]4(F)[C@@H](O)C[C@]3(C)[C@]2(C(=O)CCl)O1 [Halcinonide],1.238
6,CCCCN(CCCC)CCC(O)c1cc2c(Cl)cc(Cl)cc2c2cc(C(F)(F)F)ccc12 (stereo not shown) [Halofantrine hydrochloride],−1.422
7,O=C(CCCN1CCC(O)(c2ccc(Cl)cc2)CC1)c1ccc(F)cc1 [Haloperidol],−1.111
8,CC1=NCCc2c1[nH]c1cc(O)ccc21.Cl.O.O [Harmalol hydrochloride dihydrate],−0.7953
9,C[C@]1(OC(=O)/C=C/c2ccccc2)C[C@@H](O)[C@]2(O)C=CO[C@@H](O[C@@H]3O[C@H](CO)[C@@H](O)[C@H](O)[C@H]3O)[C@@H]21 [Harpagoside],−0.8347
10,CC(N)CCCC(C)(C)O (stereo not shown) [Heptaminol hydrochloride],0.7415
11,COc1ccc([C@@H]2CC(=O)c3c(O)cc(O)cc3O2)cc1O [Hesperetin],1.785
12,CC[C@H](c1ccc(O)cc1)[C@@H](CC)c1ccc(O)cc1 [Hexestrol],0.1469
13,CCCCC(CC)CN1CN(CC(CC)CCCC)CC(C)(N)C1 (stereo not shown) [Hexetidine],−1.372
14,CC(CNC1CCCCC1)OC(=O)c1ccccc1 (stereo not shown) [Hexylcaine hydrochloride],−0.6194
15,CC1CC(OC(=O)c2ccccc2O)CC(C)(C)C1 (stereo not shown) [Homosalate],−0.751
16,CCN(CC)CCNc1ccc(CO)c2sc3ccccc3c(=O)c12 [Hycanthone],−0.2904
17,NNc1nncc2ccccc12 [Hydralazine hydrochloride],1.472
18,CN1CCc2cc3c(cc2C1O)OCO3 (stereo not shown) [Hydrastinine hydrochloride],1.785
19,NS(=O)(=O)c1cc2c(cc1Cl)NCNS2(=O)=O [Hydrochlorothiazide],0.1742

row,SMILES,z.score.t
1,C[C@]12CCC(=O)C=C1CC[C@@H]1[C@@H]2[C@@H](O)C[C@@]2(C)[C@H]1CC[C@]2(O)C(=O)CO [Hydrocortisone base],1.76
2,COc1c2c(cc3c1OCO3)CCN(C)C2 [Hydrocotarnine hydrobromide],1.168
3,NS(=O)(=O)c1cc2c(cc1C(F)(F)F)NCNS2(=O)=O [Hydroflumethiazide],−0.1092
4,CC[C@H]1CN2CC[C@H]1C[C@H]2[C@H](O)c1ccnc2ccc(OC)cc12 [Hydroquinine hydrobromide hydrate],0.1131
5,OCCOCCN1CCN(C(c2ccccc2)c2ccc(Cl)cc2)CC1 (stereo not shown) [Hydroxyzine dihydrochloride],−0.3011
6,Cc1cc(=O)oc2cc(O)ccc12 [Hymecromone],0.9525
7,c1ccc2c(c1)OCC(C1=NCCN1)O2 (stereo not shown) [Idazoxan hydrochloride],−0.03362
8,O=c1[nH]c(=O)n([C@H]2C[C@H](O)[C@@H](CO)O2)cc1I [Idoxuridine],0.8757
9,O=P1(NCCCl)OCCCN1CCCl (stereo not shown) [Ifosfamide],0.1469
10,C[C@@H](O)[C@H]1C(=O)N2C(C(=O)O)=C(SCCN=CN)C[C@H]12 [Imipenem],0.767
11,CN(C)CCCN1c2ccccc2CCc2ccccc21 [Imipramine hydrochloride],−0.7013
12,CC1Cc2ccccc2N1NC(=O)c1ccc(Cl)c(S(N)(=O)=O)c1 (stereo not shown) [Indapamide],0.02534
13,COc1ccc2c(c1)c(CC(=O)O)c(C)n2C(=O)c1ccc(Cl)cc1 [Indomethacin],1.045
14,CC(C(=O)O)c1ccc(N2Cc3ccccc3C2=O)cc1 (stereo not shown) [Indoprofen],0.1916
15,CC(=O)N(CC(C)C(=O)O)c1c(I)cc(I)c(N)c1I (stereo not shown) [Iocetamic acid],0.9178
16,O=C(CCCCC(=O)Nc1c(I)cc(I)c(C(=O)O)c1I)Nc1c(I)cc(I)c(C(=O)O)c1I [Iodipamide],0.5976
17,CC(=O)N(CC(O)CO)c1c(I)c(C(=O)NCC(O)CO)c(I)c(C(=O)NCC(O)CO)c1I (stereo not shown) [Iohexol],−0.07901
18,C[C@H](O)C(=O)Nc1c(I)c(C(=O)NC(CO)CO)c(I)c(C(=O)NC(CO)CO)c1I [Iopamidol],−1.025
19,CCC(Cc1c(I)cc(I)c(N)c1I)C(=O)O (stereo not shown) [Iopanoic acid],1.279

row,SMILES,z.score.t
1,COCC(=O)Nc1c(I)c(C(=O)NCC(O)CO)c(I)c(C(=O)N(C)CC(O)CO)c1I (stereo not shown) [Iopromide],−0.5992
2,O=C(NCC(O)CO)c1c(I)c(C(=O)NCC(O)CO)c(I)c(N(CCO)C(=O)CO)c1I (stereo not shown) [Ioversol],−0.5789
3,CNC(=O)c1c(I)c(C(=O)NCC(=O)Nc2c(I)c(C(=O)O)c(I)c(C(=O)NCCO)c2I)c(I)c(N(C)C(C)=O)c1I [Ioxaglic acid],1.475
4,Cc1cc(C(=O)NNCc2ccccc2)no1 [Isocarboxazid],−0.9569
5,Clc1ccc(C(Cn2ccnc2)OCc2c(Cl)cccc2Cl)c(Cl)c1 (stereo not shown) [Isoconazole],−1.91
6,COc1ccc2c(c1O)-c1c(OC)c(OC)cc3c1[C@H](C2)N(C)CC3 [Isocorydine (+)],1.845
7,CC(=O)OCC(=O)[C@@]1(O)CC[C@H]2[C@@H]3CCC4=CC(=O)C=C[C@]4(C)[C@@]3(F)[C@@H](O)C[C@@]21C [Isoflupredone acetate],−0.3156
8,CNC(C)CCC=C(C)C.CNC(C)CCC=C(C)C.O=C(O)[C@@H](O)[C@H](O)[C@H](O)[C@@H](O)C(=O)O [Isometheptene mucate],1.27
9,NNC(=O)c1ccncc1 [Isoniazid],0.5041
10,CC(C)[N+](C)(CCC(C(N)=O)(c1ccccc1)c1ccccc1)C(C)C [Isopropamide iodide],0.3675
11,Cc1c(NC(C)C)c(=O)n(-c2ccccc2)n1C.Cl [Isopyrin hydrochloride],−0.2359
12,CC1=C(/C=C/C(C)=C/C=C/C(C)=C\C(=O)O)C(C)(C)CCC1 [Isotretinoin],0.4346
13,Cc1cc(NC(=O)C2=C(O)c3ccccc3S(=O)(=O)N2C)no1 [Isoxicam],1.24
14,CC(COc1ccccc1)NC(C)C(O)c1ccc(O)cc1 (stereo not shown) [Isoxsuprine hydrochloride],−0.1687
15,COC(=O)C1=C(C)NC(C)=C(C(=O)OC(C)C)C1c1cccc2nonc12 (stereo not shown) [Isradipine],0.6428
16,CO[C@@H]1[C@@H](O[C@@H]2O[C@H](C)[C@@H](O[C@H]3C[C@@](C)(O)[C@@H](OC(=O)CC(C)C)[C@H](C)O3)[C@H](N(C)C)[C@H]2O)[C@@H](CC=O)C[C@@H](C)[C@@H](O)/C=C/C=C/C[C@@H](C)OC(=O)C[C@H]1OC(C)=O [Josamycin],−0.827
17,O=c1c(O)c(-c2ccc(O)cc2)oc2cc(O)cc(O)c12 [Kaempferol],−1.014
18,NC[C@H]1O[C@H](O[C@H]2[C@H](O)[C@@H](O[C@H]3O[C@H](CO)[C@@H](O)[C@H](N)[C@H]3O)[C@H](N)C[C@@H]2N)[C@H](O)[C@@H](O)[C@@H]1O.O=S(=O)(O)O [Kanamycin A sulfate],0.07052
